Reference: publication PMC10849753, “Antiproliferative activity of platinum(II) and copper(II) complexes containing novel biquinoxaline ligands” (Metallomics: Integrated Biometal Science, 2024)

What was measured:
LN229 cells = test: MTT cell viability assay; format: cell-based, human
Protocol: (§1) Cell culture growth conditions: Selected cancer cell lines from different origins, including human glioblastoma A172 (CRL-1620), LN229 (CRL-2611), U87 (HTB-14) cell lines, human cervix HeLa (ATCC, CCL-2), human breast MDA -231 (HTB-26), human prostate PC-3 (ATCC, CRL-1435), human lung A-549 (CCL-185), and non-cancer Chinese hamster ovary CHOK1 cell line (CCL61) (which was used as control) were purchased from American Type Culture Collection (ATCC, USA). These cultures were grown in Dulbecco's modified Eagle's medium-F12 (DMEM/F12, #D0547, Sigma-Aldrich) supplemented with 5% fetal bovine serum (#10500, Gibco) and 1% antibiotic-antimycotic (#15240, Gibco), and incubated at 37°C and 5% CO2. They were harvested and used for the following assays after reaching 70–80% confluency.
(§2) The used cell lines (A172, LN229, U87, HeLa, MDA-231, PC-3, A549, and CHO-K1) were harvested and seeded (6 × 10^3 cells/well) into the 96-well plates and incubated at 37°C and 5% CO2 for 24 h. After that, the synthesized Cu(II) and Pt(II) complexes, at a concentration range of 6.25 to 100 μM in DMEM-F12, were added to the cell monolayers and incubated at 37°C and 5% CO2 for 24, 48, and 72 h. The dose–response relationships of the synthesized complexes were determined by using an MTT colorimetric agent (3-[4,5-dimethylthiazol-2-yl]-2,5-diphenyltetrazolium bromide, #M5655, Sigma-Aldrich), which is reduced by the mitochondrial enzymes of the metabolically active live cells and converted into a purple formazan product. The MTT stock solution was later dissolved in a phosphate buffer solution (PBS, 5 mg/ml, w/v) and, then, 5 μg/ml of MTT in DMEM was added into each well and incubated at 37°C and 5% CO2 for 4 h. DMSO (#D 8418, Sigma-Aldrich), as a dissolving solution for formazan crystals, was added into each well and placed in a shaker for 2 h. The absorbance at a test wavelength of 570 nm and a reference wavelength of 630 nm was measured on a microplate reader.

MDA231 cells = test: MTT cell viability assay; format: cell-based, human
Protocol: as §1, §2

PC3 cells = test: MTT cell viability assay; format: cell-based, human
Protocol: as §1, §2

U87 cells [1] = test: MTT cell viability assay; format: cell-based, human
Protocol: as §1, §2

HeLa cells = test: MTT cell viability assay; format: cell-based, human
Protocol: as §1, §2

A549 cells = test: MTT cell viability assay; format: cell-based, human
Protocol: as §1, §2

A172 cells = test: MTT cell viability assay; format: cell-based, human
Protocol: as §1, §2

[2] = target: human serum albumin (HSA) (Homo sapiens, UniProt P02768); test: HSA thermal denaturation; format: binding; conditions: HSA alone 114°C; 280 nm
Protocol: The HSA thermal decomposition was followed at 280 nm upon increasing the temperature from 30°C to 130°C at a 1°C min^−1 rate from the spectral change. In order to better examine the processes involving the interaction of metal complexes and protein structure, viscometric titration was carried out in the same manner as for the nucleic acid.

[3] = system: A172, LN229, U87, A549, Hela, PC-3, and MDA-231 cells; test: ROS production, DCFDA assay, all used cell lines; format: cell-based, human; conditions: all used cell lines; 6.25 to 100 μM, 24 h
Protocol: (§3) The reactive oxygen species (ROS) formation on the selected cell lines upon exposure to the synthesized Cu(II) and Pt(II) complexes was investigated using the oxidation-sensitive dye, 2ʹ,7ʹ-dichlorofluorescein diacetate (DCFDA, #D6883 Sigma-Aldrich). The cell lines (A172, LN229, U87, HeLa, MDA-231, PC-3, A549, and CHO-K1) were seeded (6 × 10^3 cells/well) into the 96-well plates and incubated at 37°C and 5% CO2 for 24 h. After that, the Cu(II) and Pt(II) complexes, at a concentration range of 6.25 to 100 μM, were added to the cell monolayers. Hydrogen peroxide (H2O2), at concentrations from 50 to 500 μM, was utilized as a positive control. The following day, 5 μM of DCFDA in PBS was added to the cell monolayers and, then, the plate was incubated for 30–45 min. Consequently, the fluorescence intensity was measured with 485 nm excitation and 535 nm emission wavelengths using a microplate reader. The fluorescence values of each treatment were normalized to the negative control, including only growth medium without any treatment. The assay was repeated in triplicate.

EtBr-bound CT-DNA = test: Fluorescence quenching of EtBr-pretreated CT-DNA (Stern–Volmer); format: binding, calf; design: unit not given here; conditions: 0 to 160 μM compounds
Protocol: In order to obtain the linear Stern–Volmer quenching constant (Ksv), a Thermo-Scientific Lumina Fluorescence Spectrometer was used to conduct the flourometric measurements of 10 μM ethidium bromide (EtBr)-pretreated CT-DNA solutions in the presence of 0 to 160 μM compounds.[31],[36] The excitation wavelength was adjusted at 478 nm, and emissions ware observed at about 610 nm.

prostate PC3 cells = test: ROS production, DCFDA assay; format: cell-based, human; conditions: 6.25 to 100 μM, 24 h
Protocol: as §3

[4] = system: lung A549, cervix HeLa, and breast MD-A231 cells; test: ROS production, DCFDA assay; format: cell-based, human; conditions: MDA-231, 6.25 to 100 μM, 24 h, vs negative control
Protocol: as §3

U87 cells [5] = test: In vitro comet assay; format: cell-based, human; conditions: U87, 25 and 50 μM, 24 h
Protocol: Commet assay was performed with U87 and HeLa cell lines (4 × 10^4 cells/well) to detect DNA damage in the individual eukaryotic cells, where 25 or 50 μM Cu(II) or Pt(II) complexes were added to the cells and incubated for 24 h. Subsequently, the comet assay was performed as described before.[31] The DNA damage was evaluated by calculating the DNA tail percentage using the following equation: DNA tail % = 100× tailing DNA density/cell DNA density. The assay was repeated twice, and 50 individual cells were involved for each treatment.

human serum albumin (HSA), sequence (P02768 25-609): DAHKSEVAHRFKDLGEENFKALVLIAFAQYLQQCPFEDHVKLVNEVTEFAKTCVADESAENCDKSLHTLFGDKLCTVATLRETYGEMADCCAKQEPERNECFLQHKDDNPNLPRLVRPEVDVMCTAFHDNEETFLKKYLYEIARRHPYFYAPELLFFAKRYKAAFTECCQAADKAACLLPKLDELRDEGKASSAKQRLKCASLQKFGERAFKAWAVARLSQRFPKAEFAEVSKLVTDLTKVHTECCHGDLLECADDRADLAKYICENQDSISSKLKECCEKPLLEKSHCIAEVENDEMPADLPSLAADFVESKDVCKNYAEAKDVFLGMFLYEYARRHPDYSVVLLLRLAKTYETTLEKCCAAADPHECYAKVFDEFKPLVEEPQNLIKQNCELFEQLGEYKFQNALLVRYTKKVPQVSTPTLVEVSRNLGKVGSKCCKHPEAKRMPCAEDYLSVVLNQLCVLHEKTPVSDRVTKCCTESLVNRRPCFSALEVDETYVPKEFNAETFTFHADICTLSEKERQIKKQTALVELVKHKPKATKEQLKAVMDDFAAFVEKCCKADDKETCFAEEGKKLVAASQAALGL

SMILES	IC50 (LN229 cells; LN229, 24 h exposure) [µM]	IC50 (LN229 cells; LN229, 48 h exposure) [µM]	IC50 (LN229 cells; LN229, 72 h exposure) [µM]	IC50 (MDA231 cells; MDA231, 24 h exposure) [µM]	IC50 (MDA231 cells; MDA231, 48 h exposure) [µM]	IC50 (MDA231 cells; MDA231, 72 h exposure) [µM]	IC50 (PC3 cells; PC3, 24 h exposure) [µM]	IC50 (PC3 cells; PC3, 48 h exposure) [µM]	IC50 (PC3 cells; PC3, 72 h exposure) [µM]	IC50 (U87 cells [1]; U87, 24 h exposure) [µM]	IC50 (U87 cells [1]; U87, 48 h exposure) [µM]	IC50 (HeLa cells; 24 h exposure) [µM]	IC50 (HeLa cells; 48 h exposure) [µM]	IC50 (HeLa cells; 72 h exposure) [µM]	IC50 (A549 cells; A549, 24 h exposure) [µM]	IC50 (A549 cells; A549, 48 h exposure) [µM]	IC50 (A549 cells; A549, 72 h exposure) [µM]	IC50 (A172 cells; A172, 24 h exposure) [µM]	IC50 (A172 cells; A172, 48 h exposure) [µM]	IC50 (A172 cells; A172, 72 h exposure) [µM]	also measured
[Cl][Pt][Cl].c1ccc(-c2nc3ccc(-c4ccc5nc(-c6ccccn6)c(-c6ccccn6)nc5c4)cc3nc2-c2ccccn2)nc1 [Pt(tpbq)Cl2]	> 100	91.9 ± 49	83.9 ± 3.16	94.8 ± 2.57	> 100	99.4 ± 5.71	> 100	> 100	> 100	58.4 ± 11.8	34.7 ± 2.16	> 100	58 ± 26.9	42.9 ± 1.69	> 100	58.4 ± 5.35	40.3 ± 3.42	94.3 ± 12.3	39.4 ± 15.8	73.67 ± 0.28	melting point of HSA upon addition of the complex [2]: 109 °C; ROS formation [3]: did not induce any ROS formation; KSV (Stern–Volmer quenching constant) (EtBr-bound CT-DNA): 0.0082
[Cl][Pt][Cl].c1csc(-c2nc3ccc(-c4ccc5nc(-c6cccs6)c(-c6cccs6)nc5c4)cc3nc2-c2cccs2)c1 [Pt(ttbq)Cl2]	67.9 ± 16.3	44.8 ± 11.6	38.8 ± 1.46	85 ± 10.8	> 100	> 100	> 100	> 100	> 100	> 100	9.24 ± 4.16	88.9 ± 8.31	79.7 ± 24.2	> 100	95 ± 2.93	> 100	> 100	93.5 ± 18.4	65.5 ± 17.7	49.5 ± 5.73	ROS formation (prostate PC3 cells): no formation; increase of ROS production [4]: ~2 fold; IC50 (U87 cells [1]; U87, 72 h exposure): 5.95 ± 1.68 µM; melting point of HSA upon addition of the complex [2]: 105 °C; genotoxicity (DNA damage, comet) (U87 cells [5]): caused DNA damage on the U87 cells at both concentrations; KSV (Stern–Volmer quenching constant) (EtBr-bound CT-DNA): 0.0143
